# Results as given in patent US20230416329A1, “A PEPTIDE WITH DISULFIDE BONDS AND INHIBITORY ACTIVITY AGAINST SERINE PROTEASES, DERIVED HYBRID PEPTIDES THEREOF, AND USES THEREOF” (INSTITUTE OF MATERIA MEDICA , CHINESE ACADEMY OF MEDICAL …, priority 2020, published 2023).
# pIC50, pKi: −log10 of the molar value. Bridge positions count the residues as written; N and C are the ends. Peptide text beside a SMILES is read from it.
# Biological target: porcine pancreatic elastase (Sus scrofa, UniProt P00772)
# Sequence (P00772 27-266): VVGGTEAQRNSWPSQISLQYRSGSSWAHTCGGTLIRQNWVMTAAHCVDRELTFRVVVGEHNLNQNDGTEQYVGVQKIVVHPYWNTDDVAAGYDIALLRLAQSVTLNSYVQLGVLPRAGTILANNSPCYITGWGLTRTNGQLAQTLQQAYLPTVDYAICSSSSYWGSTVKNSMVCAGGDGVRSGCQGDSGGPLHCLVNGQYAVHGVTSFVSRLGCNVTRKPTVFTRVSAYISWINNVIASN
# Experiment: Elastase inhibitory activity of peptides (AAApNA hydrolysis; IC50, Ki, residual activity)
# Format: biochemical
# Settings: for pIC50 / Residual activity of elastase: elastase 0.5 μM, AAApNA 1 mM
# Procedure: The inhibition constants of various synthetic active peptide inhibitors (molecular scaffolds) against seine proteases were measured. The substrates N-succinyl-Ala-Ala-Pro-Phe-p-nitroaniline (AAPFpNA), Nα—Benzoyl-L-arginine-4-nitroaniline hydrochloride (BApNA) and N-succinyl-[…] (AAApNA) are used in competitive binding reaction to determine the inhibitory activities against α-chymotrypsin, bovine trypsin, and porcine pancreatic elastase, respectively. Experiments for α-chymotrypsin and bovine trypsin inhibition were measured in 20 mM CaCl2, 50 mM Tris-HCl buffer (pH 7.8), and that for porcine elastase inhibition was measured in 50 mM Tris-HCl buffer (pH 8.0). The concentration of the peptide was measured using optical density (OD) at 280 nm. The Michaelis constant (Km) of the enzyme hydrolysis substrate is calculated from the initial rate of substrate hydrolysis at 405 nm. The absorbance value of the substrate was measured at 405 nm after complete hydrolysis. All data were processed using nonlinear regression.
# • (1) Added a total 198 μL of reaction buffer (20 mM CaCl2, 50 mM Tris-HCl (pH 8.0)) into the 96 well plate, followed by preheating at 37° C. for 15 min. Then added 2 μL of different concentrations of substrates (pNA, dissolved in DMSO), and mixed by centrifugation at 500 rpm for 1 min. Finally, the plate was incubated at 37° C. for 30 min, and the absorbance value at 405 nm was measured. In the 200 μL of reaction system, the final concentrations of pNA were 0, 0.025, 0.05, 0.075, 0.1, 0.125, 0.15, 0.175, and 0.2 mM, respectively. Make three repetitions for each concentration and plot the OD405 m value with pNA concentration to obtain the standard curve. • (2) Added a total 190 μL of reaction buffer (20 mM CaCl2, 50 mM Tris-HCl (pH 8.0)) and 8 μL of 4.375 μM elastase into the 96 well plate, followed by preheating at 37° C. for 5 min. Then added 2 μL of different concentrations of substrates (AAApNA, dissolved in DMSO), and mixed by centrifugation at 500 rpm for 1 min. Finally, the plate was incubated at 37° C. for 30 min, and the absorbance value at 405 nm was measured. In the 200 μL of reaction system, the final concentrations of AAApNA were 0, 0.125, 0.166, 0.2, 0.25, 0.33, 0.6, 0.75, and 1.25 mM, respectively. Make three repetitions for each concentration and plot the OD405 nm value with time to obtain the corresponding curve. Divide the slope of the curve by the slope of the standard curve and the enzyme concentration to obtain the initial velocity V0 (mM/(min*mM protein). Plot the initial velocity V0 with the concentration of substrate AAApNA using Prism software, and the Michaelis constant Km value of elastase hydrolyzing AAApNA was obtained.
# • (1) Added a total 190 μL of different concentrations of peptides (ECs) against elastase and reaction buffer (20 mM CaCl2, 50 mM Tris-HCl buffer (pH 8.0)) into the pre-cold 96 well plate, followed by preheating at 37° C. for 5 min and centrifugated at 500 rpm for 1 min and allowed to stand for 4 minutes. Then added 8 μL of 12.5 μM elastase and incubated at 37° C. for 10 min and centrifugated at 500 rpm for 1 min and allowed to stand for 9 minutes. Finally, added 2 μL of 100 mM AAApNA, and mixed by centrifugation at 500 rpm for 1 min. The plate was incubated at 37° C. for 60 min, and the absorbance value at 405 nm was measured. Three repetitions were made, and only reaction buffer and substrate were added in the blank control as the minimum absorption value (Min OD405 nm); Only reaction buffer, enzyme and substrate were added in the negative control as the maximum absorption value (Max OD405 nm). • (2) In the 200 μL of reaction system, the final concentrations of elastase and AAApNA were 0.5 μM and 1 mM, respectively. • (3) Data statistics
# Residual activity of enzyme (%)=(1−(Max OD405 nm−Sample OD405 nm)/(Max OD405 nm−Min OD405 nm))*100 […]
smiles,measurement,setting,value
CC[C@H](C)[C@@H]1NC(=O)[C@@H]2CCCN2C(=O)[C@@H]2CCCN2C(=O)[C@H]([C@@H](C)CC)NC(=O)[C@H](CO)NC(=O)[C@H](C)NC(=O)[C@H]([C@@H](C)O)NC(=O)[C@H](C)NC(=O)[C@H](CC(C)C)NC(=O)CNC(=O)[C@@H](N)CSSC[C@@H](C(=O)N[C@@H](CCC(N)=O)C(=O)O)NC1=O [EC6] (H-CGLATASIPPICQ-OH; disulfide 1-12; N-terminus and C-terminus assumed),pIC50,,< 4.30
CC[C@H](C)[C@@H]1NC(=O)[C@@H]2CCCN2C(=O)[C@@H]2CCCN2C(=O)[C@H]([C@@H](C)CC)NC(=O)[C@H](CO)NC(=O)[C@H](CC(C)C)NC(=O)[C@H]([C@@H](C)O)NC(=O)[C@H](C)NC(=O)[C@H](CC(C)C)NC(=O)CNC(=O)[C@@H](N)CSSC[C@@H](C(=O)N[C@@H](CCC(N)=O)C(=O)O)NC1=O [EC7] (H-CGLATLSIPPICQ-OH; disulfide 1-12; N-terminus and C-terminus assumed),inhibitory activity against elastase (in words),,weaker inhibitory activity
CC[C@H](C)[C@@H]1NC(=O)[C@@H]2CCCN2C(=O)[C@@H]2CCCN2C(=O)[C@H]([C@@H](C)CC)NC(=O)[C@H](CO)NC(=O)[C@H](C)NC(=O)[C@H]([C@@H](C)O)NC(=O)[C@H](CCC(=O)O)NC(=O)[C@H](CCCNC(=N)N)NC(=O)CNC(=O)[C@@H](N)CSSC[C@@H](C(=O)N[C@@H](CCC(N)=O)C(=O)O)NC1=O [EC8] (H-CGRETASIPPICQ-OH; disulfide 1-12; N-terminus and C-terminus assumed),pIC50,,< 4.30
CC[C@H](C)[C@@H]1NC(=O)[C@H](CO)NC(=O)[C@H](C)NC(=O)[C@H]([C@@H](C)O)NC(=O)[C@H](CCC(=O)O)NC(=O)[C@H](CCCNC(=N)N)NC(=O)CNC(=O)[C@@H](N)CSSC[C@@H](C(=O)N[C@@H](CCCCN)C(=O)O)NC(=O)[C@H](CCC(N)=O)NC(=O)[C@@H]2CCCN2C(=O)[C@@H]2CCCN2C1=O [EC9] (H-CGRETASIPPQCK-OH; disulfide 1-12; N-terminus and C-terminus assumed),pIC50,,< 4.30
CC[C@H](C)[C@@H]1NC(=O)[C@H](CO)NC(=O)[C@H](C)NC(=O)[C@H]([C@@H](C)O)NC(=O)[C@H](CCC(=O)O)NC(=O)[C@H](CCCNC(=N)N)NC(=O)CNC(=O)[C@@H](N)CSSC[C@@H](C(=O)O)NC(=O)[C@H](CCCCN)NC(=O)[C@H](CCC(N)=O)NC(=O)[C@@H]2CCCN2C(=O)[C@@H]2CCCN2C1=O [EC10] (H-CGRETASIPPQKC-OH; disulfide 1-13; N-terminus and C-terminus assumed),pIC50,,< 4.30
CC[C@H](C)[C@@H]1NC(=O)[C@H](CO)NC(=O)[C@H](C)NC(=O)[C@H]([C@@H](C)O)NC(=O)[C@H](CCC(=O)O)NC(=O)[C@H](CCCNC(=N)N)NC(=O)CNC(=O)[C@@H](N)CSSC[C@@H](C(=O)O)NC(=O)CNC(=O)[C@H](CCCCN)NC(=O)[C@H](CCC(N)=O)NC(=O)[C@@H]2CCCN2C(=O)[C@@H]2CCCN2C1=O [EC11] (H-CGRETASIPPQKGC-OH; disulfide 1-14; N-terminus and C-terminus assumed),pIC50,,< 4.30
CC[C@H](C)[C@@H]1NC(=O)[C@@H]2CCCN2C(=O)[C@@H]2CCCN2C(=O)[C@H]([C@@H](C)CC)NC(=O)[C@H](CO)NC(=O)[C@H](C)NC(=O)[C@H]([C@@H](C)O)NC(=O)[C@@H](NC(=O)[C@@H](N)CC(C)C)CSSC[C@@H](C(=O)N[C@@H](CCC(N)=O)C(=O)O)NC1=O [EC12] (H-LCTASIPPICQ-OH; disulfide 2-10; N-terminus and C-terminus assumed),inhibitory activity against elastase (in words),,better inhibitory activity against Elastase
same,pIC50,,6.40
same,Residual activity of elastase,peptide 0.001 μM,98.8 ± 1.1%
same,Residual activity of elastase,peptide 0.01 μM,97.8 ± 1.0%
same,Residual activity of elastase,peptide 0.06 μM,98.2 ± 2.1%
same,Residual activity of elastase,peptide 0.25 μM,72.2 ± 5.9%
same,Residual activity of elastase,peptide 0.3 μM,59.9 ± 3.2%
same,Residual activity of elastase,peptide 0.75 μM,25.1 ± 3.6%
same,Residual activity of elastase,peptide 1 μM,12.7 ± 1.0%
same,Residual activity of elastase,peptide 10 μM,1.3 ± 0.1%
same,Residual activity of elastase,peptide 100 μM,0.2 ± 0.0%
same,Residual activity of elastase,peptide 1000 μM,0.3 ± 0.0%
same,pKi,read-out: Ki against elastase,6.96
CC[C@H](C)[C@H](N)C(=O)N[C@H]1CSSC[C@@H](C(=O)N[C@H](C(=O)O)C(C)C)NC(=O)[C@H](CCC(N)=O)NC(=O)[C@H](C)NC(=O)[C@@H]2CCCN2C(=O)[C@H]([C@@H](C)CC)NC(=O)[C@H](CO)NC(=O)[C@H](CC(C)C)NC(=O)[C@H]([C@@H](C)O)NC1=O [EC13] (H-ICTLSIPAQCV-OH; disulfide 2-10; N-terminus and C-terminus assumed),pIC50,,< 4.30
CC[C@H](C)[C@@H]1NC(=O)[C@H](CO)NC(=O)[C@H](C)NC(=O)[C@H]([C@@H](C)O)NC(=O)[C@H](C)NC(=O)[C@H](Cc2ccc(O)cc2)NC(=O)CNC(=O)[C@@H](N)CSSC[C@@H](C(=O)N[C@@H](Cc2ccc(O)cc2)C(=O)O)NC(=O)[C@H](CCC(N)=O)NC(=O)[C@@H]2CCCN2C(=O)[C@@H]2CCCN2C1=O [EC15] (H-CGYATASIPPQCY-OH; disulfide 1-12; N-terminus and C-terminus assumed),pIC50,,< 4.30
CC[C@H](C)[C@@H]1NC(=O)[C@@H]2CCCN2C(=O)[C@@H]2CCCN2C(=O)[C@H]([C@@H](C)CC)NC(=O)[C@H](CO)NC(=O)[C@H](C)NC(=O)[C@H]([C@@H](C)O)NC(=O)[C@H](C)NC(=O)[C@H](CC(C)C)NC(=O)CNC(=O)CNC(=O)[C@@H](N)CSSC[C@@H](C(=O)N[C@@H](CCC(N)=O)C(=O)O)NC1=O [EC16] (H-CGGLATASIPPICQ-OH; disulfide 1-13; N-terminus and C-terminus assumed),pIC50,,< 4.30
CC[C@H](C)[C@@H]1NC(=O)[C@@H]2CCCN2C(=O)[C@@H]2CCCN2C(=O)[C@H]([C@@H](C)CC)NC(=O)[C@H](CO)NC(=O)[C@H](CC(C)C)NC(=O)[C@H]([C@@H](C)O)NC(=O)[C@H](C)NC(=O)[C@H](CC(C)C)NC(=O)CNC(=O)CNC(=O)[C@@H](N)CSSC[C@@H](C(=O)N[C@@H](CCC(N)=O)C(=O)O)NC1=O [EC17] (H-CGGLATLSIPPICQ-OH; disulfide 1-13),pIC50,,< 4.30
CC[C@H](C)[C@@H]1NC(=O)[C@H](CO)NC(=O)[C@H](C)NC(=O)[C@H]([C@@H](C)O)NC(=O)[C@@H](NC(=O)[C@@H](N)CC(C)C)CSSC[C@@H](C(=O)N[C@@H](CCC(N)=O)C(=O)O)NC(=O)[C@H](CCC(N)=O)NC(=O)[C@@H]2CCCN2C(=O)[C@@H]2CCCN2C1=O [EC18] (H-LCTASIPPQCQ-OH; disulfide 2-10; N-terminus and C-terminus assumed),Residual activity of elastase,peptide 0.001 μM,99.2 ± 2.0%
same,Residual activity of elastase,peptide 0.01 μM,100.6 ± 1.5%
same,Residual activity of elastase,peptide 0.1 μM,97.0 ± 4.0%
same,Residual activity of elastase,peptide 0.2 μM,100.2 ± 2.0%
same,Residual activity of elastase,peptide 0.4 μM,90.3 ± 0.5%
same,Residual activity of elastase,peptide 0.6 μM,73.5 ± 4.8%
same,Residual activity of elastase,peptide 1 μM,49.4 ± 3.3%
same,Residual activity of elastase,peptide 6 μM,8.4 ± 0.4%
same,Residual activity of elastase,peptide 10 μM,3.6 ± 0.5%
same,Residual activity of elastase,peptide 100 μM,0.1 ± 0.0%
